ChEMBL document CHEMBL5728291, “Pyrazole MAGL inhibitors” (2021)
pIC50: −log10 of the molar value.

Target: T1, Monoglyceride lipase (Homo sapiens, UniProt Q99685)
T1 sequence (Q99685 whole entry): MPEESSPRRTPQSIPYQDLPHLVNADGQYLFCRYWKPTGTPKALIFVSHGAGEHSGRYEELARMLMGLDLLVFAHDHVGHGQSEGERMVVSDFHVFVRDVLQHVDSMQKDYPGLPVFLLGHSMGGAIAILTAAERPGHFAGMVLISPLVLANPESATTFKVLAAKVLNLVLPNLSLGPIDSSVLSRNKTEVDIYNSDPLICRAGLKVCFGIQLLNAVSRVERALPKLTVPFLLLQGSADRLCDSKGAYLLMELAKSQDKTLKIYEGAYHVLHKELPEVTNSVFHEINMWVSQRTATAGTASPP
Assay: In Vitro Competitive Activity-Based Protein Profiling: Proteomes (mouse brain membrane fraction for mouse assays; human prefrontal cortex membrane fractions for human assays) (50 mL, 1.0 mg/mL total protein concentration) were preincubated with varying concentrations of inhibitors at 37° C. After 30 min, FP-Rh (1.0 mL, 50 mM in DMSO) was added and the mixture was incubated for another 30 min at 37° C.

pIC50: > 7.00
Compound: O=C(O)c1ccn(C(=O)N2C[C@H]3C[C@H](Oc4cc(Cl)ccc4C(F)(F)F)C[C@H]3C2)n1
